{"source": "patent US20240109925A1", "about": "“Enhanced Anti-Proliferative and Antitumor Immune Effects of Mitochondria-Targeted Hydroxyurea” (The Medical College of Wisconsin, Inc., priority 2021, published 2024)", "assay_type_in_all_cases": "cell-based", "key": {"[1]": {"test_system": "HCT116 human colon cancer cells", "test": "Cell proliferation (cell confluence), IncuCyte Live-Cell Analysis system"}, "[2]": {"test_system": "HCT116 human colon cancer cells", "test": "Cell proliferation (cell confluence), IncuCyte Live-Cell Analysis system", "conditions": "for IC50: Homo sapiens, HCT-116, at ~90% confluence of control; for IC50 / inhibition of proliferation of HCT116 cells: HCT116; for Cell Confluence (%): when control cells reached ~90% confluence, n = 4", "source_text": "FIG. 1. Effects of HU and Mito-HUs on proliferation of HCT116 human colon cancer cells (A) Effects of HU and Mito-HUs on the proliferation of HCT116 cells were monitored in the IncuCyte Live-Cell Analysis system. The IncuCyte Analyzer provides real-time updates on cell confluence, based on segmentation of high definition-phase contrast images. Representative cell images were shown as segmentation mask illustrated in brown when control cells reached 90% confluence (vertical solid black line). (B) The IC50 values were determined at the point at which control cells reached ˜90% confluence (vertical solid black line). Relative cell confluence (control is taken as 100%) is plotted against concentration. Dashed lines represent the fitting curves used to determine the IC50 values as indicated. Data shown are the means & SD.\n(§1) The following cell lines were obtained from the American Type Culture Collection (Manassas, VA), where they were regularly authenticated: HCT116 (ATCC Cat #CRL-247, human colon cancer cells) and MiaPaCa-2 (ATCC Cat #CRL-1420, human pancreatic cancer cells). All cells were cultured in a humidified incubator at 37° C. and 5% carbon dioxide. HCT116 cells were maintained in RPMI 1640 medium (Thermo Fisher Scientific, Cat #11875), supplemented with 10% fetal bovine serum. MiaPaCa-2 cells were maintained in Dulbecco's Modified Eagle Medium (Thermo Fisher Scientific, Waltham, MA; Cat #11965) supplemented with 10% fetal bovine serum. All cells were stored in liquid nitrogen and used within 20 passages after thawing.\n(§2) The IncuCyte Live-Cell Analysis system (Essen Bioscience Inc., Ann Arbor, MI) was used to monitor cell proliferation (Cheng et al., 2013, 2016; Boyle et al., 2018). As shown in previous publications (Cheng et al., 2013, 2016), this imaging system is probe-free and noninvasive, and enables continuous monitoring of cell confluence over several days. The increase in the percentage of cell confluence was used as a surrogate marker of cell proliferation. In a 96-well plate, cells were plated at 1,000 cells per well in triplicates and left to adhere overnight. Cells were then treated with HU and Mito-HUs, and the cell confluency was recorded over several days in the IncuCyte Live-Cell Analysis system."}, "[3]": {"test_system": "MiaPaCa-2 human pancreatic cancer cells", "test": "Cell proliferation, IncuCyte Live-Cell Analysis system", "source_text": "FIG. 7. Effects of HU and Mito10-HU on proliferation of MiaPaCa-2 human pancreatic cancer cells; MiaPaCa-2 cells treated with HU or Mito10-HU were monitored in the IncuCyte Live-Cell Analysis system. Cell proliferation was monitored in real-time with the continuous presence of indicated treatments until the end of each experiment. Data shown are the means±SD.\nas §1, §2"}, "mitochondrial complex I": {"biological_target": "mitochondrial complex I (Homo sapiens, UniProt O75251+O75306+P03886)", "test": "Complex I-dependent oxygen consumption (OCR), Seahorse XF-96, HCT116 cells", "conditions": "HCT116, 24 hr", "protocol": "(§3) FIG. 2. Effects of HU and Mito-HUs on the oxygen consumption by mitochondrial complexes I and III (A) Dose-dependent effects of HU, Mito10-HU, Mito12-HU, Mito14-HU, Mito16-HU, and Mito20-HU on complex I- and complex III-dependent oxygen consumption were measured in HCT116 cells. HCT116 cells were treated with HU or Mito-HUs as indicated for 24 hr. Mitochondrial complex I activity (left) and complex III activity (right) were monitored by a Seahorse XF-96 analyzer. Either rotenone (complex I inhibitor) or antimycin A (complex III inhibitor) was acutely added and OCR assayed immediately. (B) The mitochondrial complex I (left) and III (right) dependent oxygen consumption (calculated as rotenone or antimycin A inhibitable OCR) are plotted against concentration of HU and Mito-HUs. Dashed lines represent the fitting curves used for determination of the IC50 values. Data shown are the means G SD.\n(§4) Mitochondrial oxygen consumption was measured using the Seahorse XF-96 Extracellular Flux Analyzer (Agilent, North Billerica, MA) (Cheng et al., 2013, 2016; Boyle et al., 2018; Weinberg and Chandel, 2015). After cells were treated with HU or Mito-HUs for 24 hr, the OCR-based assessment of mitochondrial complex activities was carried out on acutely permeabilized cells in the presence of different mitochondrial substrates, i.e., pyruvate/malate for complex I and duroquinol for complex III (Cheng et al., 2016, 2019; Salabei et al., 2014; Wheaton et al., 2014). Rotenone, malonate, and antimycin A (Sigma-Aldrich, St. Louis, MO) were used as specific inhibitors of mitochondrial complexes I, II, and III, respectively. Briefly, cells that were intact after treatments were immediately permeabilized using the Seahorse XF Plasma Membrane Permeabilizer (Agilent). The mitochondrial complex I-induced OCR was assayed in mannitol and sucrose buffer (Salabei et al., 2014) containing 10 mM pyruvate and 1.5 mM malate (substrates for complex I) and 10 mM malonate (which inhibits complex II activities). The mitochondrial complex III-driven OCR was assayed in a mannitol and sucrose buffer containing 0.5 mM duroquinol (substrate for complex III) as well as […] and 10 mM malonate (which inhibit both complex I and II activities). The IC50 values were determined as previously reported (Cheng et al., 2019)."}, "[4]": {"biological_target": "T1, mitochondrial complex III (Homo sapiens, UniProt P00156+P47985)", "T1 construct": "other: mean ± SD; HCT116, 24 hr treatment; Complex III activity (OCR, % of control); other: 0.1 μM, 24 hr, HCT116; n = 4; other: 0.5 μM, 24 hr, HCT116; other: 0.75 μM, 24 hr, HCT116; other: 1 μM, 24 hr, HCT116; Compl", "test": "Complex III-dependent oxygen consumption (OCR), Seahorse XF-96, HCT116 cells", "conditions": "HCT116, 24 hr", "protocol": "as §3, §4"}, "[5]": {"conditions": "read-out: IC50 proliferation of HCT116 cells"}}, "note": "Entries after “also recorded” stand apart in the source; their conditions may differ. Like-named read-outs stand apart in the source and are kept apart here."}
{"smiles": "Cc1[nH]nc(C(F)(F)F)c1Cc1sc2c(c1C(=O)N1C[C@](C)(O)CO1)c(=O)n(C)c(=O)n2C(C)C", "note": "[AZD-3965, reference compound]", "values": [{"measurement": "antiproliferative effect, each alone (AZD-3965 experiment)", "setting": "[1]; Mito10-HU (5 μM) or AZD-3965 (100 μM) independently, HCT-116", "value": "negligible antiproliferative effects"}]}
{"smiles": "CCCCCCCCCCONC(N)=O", "note": "[Decyl-HU, decyloxyurea, reference compound]", "values": [{"measurement": "IC50", "setting": "[2]; [5]", "value": "> 600", "unit": "µM"}]}
{"smiles": "NC(=O)NOCCCC[P+](c1ccccc1)(c1ccccc1)c1ccccc1.O=C([O-])C(F)(F)F", "note": "[Mito4-HU, 4-[(carbamoylamino)oxy]-butyltriphenylphosphonium trifluoroacetate]", "values": [{"measurement": "Cell Confluence (%)", "setting": "[2]; 100 μM", "value": 92.40, "unit": "%"}, {"measurement": "Cell Confluence (%)", "setting": "[2]; 200 μM", "value": 90.77, "unit": "%"}, {"measurement": "Cell Confluence (%)", "setting": "[2]; 400 μM", "value": 80.77, "unit": "%"}, {"measurement": "Cell Confluence (%)", "setting": "[2]; 600 μM", "value": 47.24, "unit": "%"}, {"measurement": "inhibition of proliferation of HCT116 cells", "setting": "[2]; trifluoroacetate", "value": "dose-dependently inhibited proliferation; also recorded: lower than that of HU"}, {"measurement": "IC50", "setting": "[2]; [5]", "value": "> 600", "unit": "µM"}, {"measurement": "IC50", "setting": "[2]; mean ± SD, read-out: IC50 Cell Proliferation (FIG. 1)", "value": "> 600", "unit": "µM"}, {"measurement": "inhibition of proliferation of MiaPaCa-2 cells", "setting": "[3]", "value": "did not inhibit the proliferation"}]}
{"smiles": "O=C(NO)NC(=O)NCCCCCCCCCC[P+](c1ccccc1)(c1ccccc1)c1ccccc1.O=C([O-])C(F)(F)F", "note": "[Mito10-HUNHTPP^+, 10-[(hydroxycarbamoyl)carbamoylamino]-decyltriphenylphosphonium trifluoroacetate]", "values": [{"measurement": "inhibition of proliferation of HCT116 cells", "setting": "[2]", "value": "inhibited HCT116 cell proliferation"}]}
{"smiles": "Cc1ccc([P+](CCCCCCCCCCONC(N)=O)(c2ccc(C)cc2)c2ccc(C)cc2)cc1.O=C([O-])C(F)(F)F", "note": "[Mito10-HUtriMe, 10-[(carbamoylamino)oxy]-decyl-tris-p-tolylphosphonium trifluoroacetate]", "values": [{"measurement": "IC50", "setting": "[2]; [5]", "value": 3.7, "unit": "µM"}, {"measurement": "effect on complex I-induced oxygen consumption", "setting": "mitochondrial complex I", "value": "more potently than Mito10-HU"}, {"measurement": "effect on complex III-induced oxygen consumption", "setting": "[4]", "value": "more potently than Mito10-HU"}]}
{"smiles": "CCOC(=O)Oc1c(OC)cc(C(=O)O[C@@H]2C[C@@H]3CN4CCc5c([nH]c6cc(OC)ccc56)[C@H]4C[C@@H]3[C@H](C(=O)OC)[C@H]2OC)cc1OC", "note": "[syrosingopine, reference compound]", "values": [{"measurement": "effect on cell proliferation, each alone (syrosingopine experiment)", "setting": "[1]; Mito10-HU (5 μM) or syrosingopine (7.5 μM) independently, HCT116", "value": "minimally affected cell proliferation"}]}
